Experimental findings from ChEMBL document CHEMBL1126403, “Azaheteroaromatic ethers as carbonyl bioisosteres. Synthesis and evaluation of a novel class of 5-HT3 receptor antagonists” (Bioorg Med Chem Lett, 1992) are described below.

The structures appear in SMILES notation. pIC50: −log10 of the molar value.

In experiment [1] the target is T1, Serotonin 3 (5-HT3) receptor (Rattus norvegicus, UniProt P35563+Q9JJ16).
T1 sequence (P35563 whole entry): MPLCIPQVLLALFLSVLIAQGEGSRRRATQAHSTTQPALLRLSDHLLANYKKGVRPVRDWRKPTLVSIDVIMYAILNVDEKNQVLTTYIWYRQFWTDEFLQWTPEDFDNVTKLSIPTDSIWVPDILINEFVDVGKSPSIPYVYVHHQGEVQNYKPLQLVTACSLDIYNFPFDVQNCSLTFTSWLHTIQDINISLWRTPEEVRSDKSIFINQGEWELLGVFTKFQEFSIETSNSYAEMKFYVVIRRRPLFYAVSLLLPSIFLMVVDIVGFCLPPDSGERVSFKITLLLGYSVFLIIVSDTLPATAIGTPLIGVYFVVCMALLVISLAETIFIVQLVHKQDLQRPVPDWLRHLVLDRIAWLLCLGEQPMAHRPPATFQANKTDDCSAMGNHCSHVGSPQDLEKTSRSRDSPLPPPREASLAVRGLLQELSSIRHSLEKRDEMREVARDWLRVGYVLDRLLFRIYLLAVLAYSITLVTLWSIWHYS
T1 sequence (Q9JJ16 whole entry): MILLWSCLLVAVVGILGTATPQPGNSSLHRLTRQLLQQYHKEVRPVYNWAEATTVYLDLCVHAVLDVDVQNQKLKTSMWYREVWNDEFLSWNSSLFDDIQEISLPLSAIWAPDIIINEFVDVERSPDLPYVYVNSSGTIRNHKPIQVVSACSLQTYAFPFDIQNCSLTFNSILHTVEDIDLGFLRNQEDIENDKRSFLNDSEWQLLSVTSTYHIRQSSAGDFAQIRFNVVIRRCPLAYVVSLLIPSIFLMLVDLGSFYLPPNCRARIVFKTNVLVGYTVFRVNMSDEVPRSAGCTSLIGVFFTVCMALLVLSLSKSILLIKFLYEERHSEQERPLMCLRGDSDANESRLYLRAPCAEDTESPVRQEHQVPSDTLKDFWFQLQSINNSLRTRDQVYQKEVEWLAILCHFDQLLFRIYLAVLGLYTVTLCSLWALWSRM
The experiment in a line: Binding affinity was evaluated in vitro by displacement of [3H]zacopride radioligand from 5-hydroxytryptamine 3 receptor. Format: protein-complex assay.

For another experiment, the system named is Rattus norvegicus. As to the kind of experiment: Compound was evaluated in vivo for its potency to antagonise serotonin 5-HT-inducedbradycardia in the anesthetized rat. Format: functional.

The pIC50 is the IC50 on a negative log10 scale, so that one unit is a factor of ten. High values mean a low IC50, low ones a high IC50. The compound `CN1[C@@H]2CC[C@H]1C[C@@H](OC(=O)c1cc(Cl)cc(Cl)c1)C2` [BEMESETRON] showed a pIC50 in experiment [1] of 7.37. Further, the Dose in the experiment on Rattus norvegicus stood at 0.1 mg/kg.
`Cc1nccn1CC1CCc2c(c3ccccc3n2C)C1=O` (stereo not drawn) [ONDANSETRON]: in the experiment on Rattus norvegicus, the Dose turned out to be 0.01 mg/kg.
In turn, `CN1C2CCC1CC(Oc1nc3ccccc3s1)C2` (stereo not drawn) showed a pIC50 in experiment [1] of 8.16. This compound gave a Dose in the experiment with Rattus norvegicus of 0.1 mg/kg.
`COc1cc(N)c(Cl)cc1C(=O)NC1CN2CCC1CC2` (stereo not drawn) [ZACOPRIDE] had a pIC50 in experiment [1] of 8.66. Further, the Dose with Rattus norvegicus worked out at 0.01 mg/kg.
In the same order, the values of `CN1[C@@H]2CC[C@H]1C[C@@H](OC(=O)c1c[nH]c3ccccc13)C2` [TROPISETRON] are 8.64 and 0.01 mg/kg.
The matching figures for `CN1C2CCC1CC(Oc1ccc3ccccc3n1)C2` (stereo not drawn): 7.40 and 10 mg/kg.
`c1ccc2nc(OC3CN4CCC3CC4)ccc2c1` (stereo not drawn) had a pIC50 in experiment [1] of 7.32. The Dose in the experiment on Rattus norvegicus was found to be 3 mg/kg.
